According to US20260160663A1, “OBLIQUE LINE SCANNER SYSTEMS AND METHODS FOR HIGH THROUGHPUT SINGLE MOLECULE TRACKING IN LIVING CELLS” (EIKON THERAPEUTICS, INC., priority 2022, published 2026):

System: Halo-PCNA U2OS cells
Test: Cell cycle block, phases assigned by PCNA-based machine learning model
Conditions: 2 mM Thymidine (S-phase block) or RO-3306 (G2-M block) per FIG. 20B legend
Experimental: Time-lapse microscopy was conducted on Halo-PCNA labeled with 50 nM JFX650, to achieve near-saturating labeling, for 12 hours at 12 frames per hour (FIG. 21A). A machine learning model was then trained using both manually assigned cell stages and time-based progression resulting in both a G1, early S, mid S, late S, G2 and mitosis classifier as well as a regression prediction across the continuum of the cell cycle (FIG. 21B). The predicted cell cycle classification performed well as compared to manual annotation (FIG. 21C). Clear progression of individual cells through the cell cycle was observed when regression prediction was plotted across the time series (FIG. 21D). […] When cells in each cell phase were analyzed separately, it became apparent that the slow-moving population of PCNA was exclusively found in cell predicted to be in S-phase and that there was a marked decrease in the fast-moving population (FIG. 20E). Mean diffusion coefficient of PCNA was then measured for 4,081 individual cells to characterize heterogeneity across the cell population, which is described in large part by cell cycle (FIG. 20F).
Cell cycle as provided above can be automatically determined using an image (e.g., an image of JF549-labeled PCNA). […]

Row | SMILES | fraction of cells assigned to the respective cell phase
1 | Cc1cn([C@H]2C[C@H](O)[C@@H](CO)O2)c(=O)[nH]c1=O [thymidine] | expected enrichment
2 | O=C1NC(=NCc2cccs2)S/C1=C\c1ccc2ncccc2c1 [RO-3306] | expected enrichment
